Source: patent US4397868A, “Method of treating atherosclerosis with trisubstituted ureas” (American Cyanamid Company, priority 1982, dated 1983)

System: fatty acyl CoA:cholesterol acyl transferase (ACAT)
Test: In vitro inhibition of fatty acyl CoA:cholesterol acyl transferase (ACAT), rat adrenal microsomal supernatant
Type: biochemical
Conditions: test compound final concentration 5.2 μg./ml., 14C-oleoyl CoA, 37° C., 10 minutes
Protocol: A representative compound of the present invention was assayed for a biological activity related to potential use as an antiatherosclerotic agent. The compound was tested in vitro for its ability to inhibit the enzyme fatty acyl CoA:cholesterol acyl transferase (ACAT).
A representative compound was tested for its ability to inhibit ACAT according to the following procedure:
Rat adrenals were homogenized in 0.2 M monobasic potassium phosphate buffer, pH 7.4, and centrifuged at 1000 times gravity for 15 minutes at 5° C. The supernatant, containing the microsomal fraction, served as the source of the cholesterol-esterifying enzyme, fatty acyl CoA:cholesterol acyl transferase (ACAT). A mixture comprising 50 parts of adrenal supernatant, 10 parts of albumin (BSA) (50 mg./ml.), 3 parts of test compound (final concentration 5.2 μg./ml.) and 500 parts of buffer was preincubated at 37° C. for 10 minutes. After treatment with 20 parts of oleoyl CoA (^14 C-0.4 μCi) the mixture was incubated at 37° C. for 10 minutes. A control mixture, omitting the test compound, was prepared and treated in the same manner. The lipids from the incubation mixture were extracted into an organic solvent and separated by thin-layer chromatography. The cholesterol ester fraction was counted in a scintillation counter. […]

CCCCN(Cc1ccccc1)C(=O)Nc1ccccc1 [Example 1, 1-Benzyl-1-(n-butyl)-3-(phenyl)urea]
inhibited ACAT: 82%
